Source: ChEMBL document CHEMBL1121560, “Synthesis and biological activity of 5-fluoro-2'-deoxyuridine 5'-phosphorodiamidates” (J Med Chem, 1980)
pIC50: −log10 of the molar value. The source made the active and inactive calls. The calls are words filed in the database; no cut-off is given here.

Key:
L5178Y [1] = test: In vitro percent inhibition at 10 e-8 M against L5178Y cell growth after 72 hr (replicate flasks inoculated with 10 e5 cells were treated with the nucleotide); format: functional; settings: Mus musculus
[2] = molecular target: T1, Thymidylate synthase (Lactobacillus casei) (UniProt P00469); test: Compound was tested for its inhibition against Thymidylate synthase up to concentration of 1 mM; IA means inactive; settings: Lacticaseibacillus casei
T1 sequence (whole entry): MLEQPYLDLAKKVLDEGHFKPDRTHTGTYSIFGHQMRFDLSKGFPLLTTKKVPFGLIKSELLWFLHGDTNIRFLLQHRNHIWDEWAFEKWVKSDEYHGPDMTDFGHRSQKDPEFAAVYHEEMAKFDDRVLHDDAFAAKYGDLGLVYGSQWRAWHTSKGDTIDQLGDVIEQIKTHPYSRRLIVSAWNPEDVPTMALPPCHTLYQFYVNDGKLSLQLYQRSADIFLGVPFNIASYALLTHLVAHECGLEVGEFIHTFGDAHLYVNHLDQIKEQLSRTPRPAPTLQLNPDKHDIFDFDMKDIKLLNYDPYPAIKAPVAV

L5178Y [3] = test: Comparative inhibition of L5178Y cell growth in vitro (concentration required for 50% inhibition); format: functional, cell-based; settings: Mus musculus
[4] = (§1) Half-life for hydrolysis to 5-fluoro-2'-deoxyuridine-5'-phosphate at 100 degree Centigrade; format: ADME
[5] = Half-life for hydrolysis to 5-fluoro-2'-deoxyuridine-5'-phosphate at […] Centigrade; format: ADME
[6] = Half-life for hydrolysis to 5-fluoro-2'-deoxyuridine-5'-phosphate at 65 degree Centigrade; format: ADME
L5178Y [7] = test: as §1; format: functional; settings: Mus musculus

Row | Compound | inhibition at 0.01 µM (L5178Y [1]) [%] | inhibition [2] | pIC50 (L5178Y [3]) | half-life [4] [h] | half-life [5] [h] | half-life [6] [h] | T1/2 (L5178Y [7]) [h]
1 | O=c1[nH]c(=O)n([C@H]2C[C@H](O)[C@@H](COP(=O)(O)O)O2)cc1F [5-FLUORODEOXYURIDYLATE] | 67 | inactive | 8.85 |  |  |  | 
2 | O=c1[nH]c(=O)n([C@H]2C[C@H](O)[C@@H](CO)O2)cc1F [FLOXURIDINE] |  | inactive | 9.12 |  |  |  | 
3 | NP(N)(=O)OC[C@H]1O[C@@H](n2cc(F)c(=O)[nH]c2=O)C[C@@H]1O | 45 | inactive | 8.70 | 3.9 | 0.25 |  | 
4 | O=c1[nH]c(=O)n([C@H]2C[C@H](O)[C@@H](COP(=O)(N3CCOCC3)N3CCOCC3)O2)cc1F | 11 | inactive |  |  |  | 240 | 100
